This note sets out measurements from patent publication US20020137023A1, “Methods and compositions for targeting compounds to muscle” (Auburn University, priority 1997, published 2002).

Assay in all cases: in vivo phage display selection, frequency of selected clone
Assay [1] concerns skeletal muscle. How it is done:
(§1) In round one of selection, the phage library is injected intravenously and multiple tissues may be recovered. In subsequent rounds, the phage purified from specific tissues recovered in round one is injected intravenously, and thus, only that tissue is recovered. In rounds 2-4, separate animals are needed for each tissue being examined. After the last round, the phages are plated on a lawn of bacteria and a number of phage plaques are isolated and the DNA sequenced. Of these a certain percentage will represent the dominant selected clone. FIG. 2 provides a scheme for selection of tissue specific phage.
(§2) In the Table, “Four rounds of selection . . . ,” means that in round 1, the phage library was injected intravenously, and a specific tissue was recovered. In round 1, multiple tissues are recovered from one animal (skeletal muscle, cardiac muscle, etc.). In any subsequent round, the phage purified from a specific tissue is injected intravenously, and only that tissue is recovered. Thus, in rounds 2-4, separate animals are needed for each tissue being examined. After the last round, the phage are plated on a lawn of bacteria and a number of phage plaques are isolated and the DNA sequenced. This is represented in the Table by “number of phage clones sequenced.” Of these, a certain percentage will represent the dominant selected clone.
(§3) The experiments disclosed herein, represent the first in vivo selection in any species other than mouse. Generally, phage was left to circulate for one hour.

Assay [2] deals with cardiac muscle. On the set-up: species or system dog. The note with it: for FREQUENCY (of selected phage clone among clones sequenced): 3 in vivo rounds in cardiac muscle, dog. The procedure:
as §1, §2, §3

The subject of assay [3] is cardiac muscle. The note with it: mouse. How it is done: as §1, §2, §3
Assay [4] deals with murine muscle. The arrangement: species or system mouse. The note with it: four rounds in vivo. How it is done:
as §1
In the Table, “Four rounds of selection . . . ,” means that in round 1, the phage library was injected intravenously, and a specific tissue was recovered. In round 1, multiple tissues are recovered from one animal (skeletal muscle, cardiac muscle, etc.). In any subsequent round, the phage purified from a specific tissue is injected intravenously, and only that tissue is recovered. Thus, in rounds 2-4, separate animals are needed for each tissue being examined. After the last round, the phage are plated on a lawn of bacteria and a number of phage plaques are isolated and the DNA sequenced. This is represented in the Table by “number of phage clones sequenced.” Of these, a certain percentage will represent the dominant selected clone. […]

Assay [5] has as its system neuro muscular tissue. To be noted: 4 in vivo rounds in neural muscular tissue; mouse. The procedure:
as §1, §2, §3

The mark [6] stands for this setting: 4 in vivo rounds in skeletal muscle, mouse.
Where [7] appears, read: 4 in vivo rounds in cardiac muscle.

In the case of “ASSLNIA (Phage display library peptides) [Ala-Ser-Ser-Leu-Asn-Ile-Ala]”, in assay [1] (3 in vitro rounds on C2C12 myotubes followed by 2 in vivo rounds on skeletal muscle, mouse), the “FREQUENCY (of selected phage clone among clones sequenced)” value is given as 40%.
On to “SGTLFAN (Phage display library peptides) [peptide selected by 3 in vivo phage rounds in dog cardiac muscle]”, for which, in assay [2], the “FREQUENCY (of selected phage clone among clones sequenced)” value worked out at 28%.
Consider “WDANGKT (Phage display library peptides) [Trp-Asp-Ala-Asn-Gly-Lys-Thr]”, for which the “FREQUENCY (of selected phage clone among clones sequenced)” value in assay [1] (2 in vitro on C2C12 myotubes followed by 2 in vivo rounds on skeletal muscle, mouse + dog) is on record as 10%; in assay [1] (setting [6]), 19%.
For the substance “APVHRPL (Phage display library peptides) [peptide selected via two rounds in vivo, in canine cardiac muscle]”, the “fraction in which the selected clone was found” value in assay [2] (two rounds in vivo, in canine cardiac muscle) is on record as “found in the washed tissue fraction”.
Take “QWHGPLH (Phage display library peptides) [Gln-Trp-His-Gly-Pro-Leu-His]”: the “FREQUENCY (of selected phage clone among clones sequenced)” value in assay [3] (3 in vivo rounds in cardiac muscle) turned out to be 20%.
Take “HVHTLPT (Phage display library peptides) [His-Val-His-Thr-Leu-Pro-Thr]”: in assay [3] (setting [7]), the “FREQUENCY (of selected phage clone among clones sequenced)” value was 11%.
Same read-out and setting: the result for “MHHTRFY (Phage display library peptides) [Met-His-His-Thr-Arg-Phe-Tyr]” reads 8%.
Consider “HAIYPRH (Phage display library peptides) [peptide selected via four rounds in vivo, in murine muscle]”, for which, in assay [4], the “frequency of selected clone” value turned out to be 4%.
Consider “GETRAPL (Phage display library peptides) [Gly-Glu-Thr-Arg-Ala-Pro-Leu]”, for which the “FREQUENCY (of selected phage clone among clones sequenced)” value in assay [5] was found to be 12%; in assay [1] (setting [6]) it was 37%.
Consider “CGHHPVYAC (Phage display library peptides) [Cys-Gly-His-His-Pro-Val-Tyr-Ala-Cys]”, for which the “FREQUENCY (of selected phage clone among clones sequenced)” value in assay [1] (tissue skeletal muscle, dog) worked out at 100%; in assay [2], 20%.
In the case of “KAPLTPV (Phage display library peptides) [peptide selected by 3 in vivo phage rounds in dog cardiac muscle]”, the “FREQUENCY (of selected phage clone among clones sequenced)” value in assay [2] was 8%.
